Measurements taken from patent US20190008810A1, “METHOD FOR PREVENTION, TREATMENT AND ALLEVIATION OF INFECTIOUS DISEASES AND DISORDERS” (REPLICON HEALTH OY, priority 2016, published 2019).

Experiments:
[1] = tested on: acute bowels inflammation caused by diverticulitis; assay: Healing from acute inflammatory bowels disease (diverticulitis) in S4, Example 1e; format: in vivo, human; conditions: S4, 1000 mg 1-2 times a day, before DGA
Description: In Example 1e the resolution of gastrointestinal tract infection in another subject 4 (S4) has been shown. Like in S1 also in S4 the HO-1 pathway is clearly activated by the DGA Activation. This is indirectly shown by the clear reduction of blood bilirubin in Table 1e. […] During last few years these seldom but acute inflammations in the gastrointestinal tract have been mostly in the colon and caused by inflammation in Colonic diverticula. […] The only functioning therapy for inflammatory bowels disease has been the administration of strong intravenous antibiotics.
Like other tests with unhealthy humans also this test was done because there were no other efficient substances available. When symptoms of increased bowels inflammation/diverticulosis started S4 was on holiday abroad with very difficult access to any specialized doctor not to mention any hospital. […] Simultaneously with inflammatory symptoms and maybe partially enhancing them S4 experienced constipation.
By Saturday night on the 4th day of gradually increasing acute inflammation in the colon, S4 decided to test whether DGA Activation in combination with paracetamol would assist in resolving this already rather serious inflammation. There were no other available options at that moment. This decision was also supported by confidential information received on positive results with S1 (Examples 1b and 1c).
Saturday night at 0737 pm first 260 mg of D-glyceric acid calcium salt mixed into water was taken with 2×500 mg of paracetamol. Another additional 260 mg dose of DGAcs mixed into water was taken the same night at 1020 pm. Altogether the starting dose was 9 mg/kg i.e. relatively high. High initial dose was chosen because of high level of inflammation.

[2] = tested on: seasonal flu or similar infectious disease; format: in vivo, human; conditions: S1, 2 or 3 times 1×500 mg during work days, before DGA

CC(=O)Nc1ccc(O)cc1 [paracetamol, reference compound]
effect on pains and symptoms [1]: helped to relief pains for 2-3 days but the symptoms got worse | effect on general symptoms and fever [2]: temporary relief but no cure
